Here are results for one compound from article PMC9950073, “Alleviation of arthritis through prevention of neutrophil extracellular traps by an orally available inhibitor of protein arginine deiminase 4” (Scientific Reports, 2023).

Series [1] has as its system human neutrophils. The series is described as follows: Cell Titer Glo viability assay, neutrophils. The format is cell-based. Particulars: 24 h, up to 10 µM. An excerpt: All blood samples from healthy donors who participated in this study were obtained after informed consent in accordance with relevant guidelines and regulations given by the ACE Independent ethics committee for Jubilant Biosys Ltd and Office of Clinical Investigations at Boston Children’s Hospital. The ACE Independent ethics committee, Bangalore, approved the use of human whole blood/PBMC/Enriched Subset in Jubilant Biosys Ltd investigations, Drug Controller General of India (DCGI) Reg No. ECR/141/Indt/KA/2013. Briefly, 10 mL K2EDTA vacutainers were used to collect fresh blood from healthy donors (BD vacutainer, Catalog No: BD 367525). A total of 50 ml of blood was taken from a single, healthy human donor. Neutrophils were isolated from human blood using the EasySep Direct Human Neutrophil Isolation Kit, according to the manufacturer's instructions (Stem Cell Technology, Catalog No: 19666). For investigations conducted at Boston Children’s Hospital, experimental procedure was approved by the Office of Clinical Investigations at Boston Children’s Hospital (protocol number IRB-P00003283). […]
The CellTiter-Glo luminescent cell viability assay was performed on neutrophils/peripheral blood mononuclear cells according to the manufacturer’s instructions (Promega, catalog number: G7570)[35]. […] Luminescence was recorded with Perkin Elmer envision 2103 multilabel reader.
For orientation: In ATP-based viability assays light output follows the ATP content of the culture.

Series [2] addresses T1, human recombinant PAD6 (Homo sapiens, UniProt Q6TGC4).
T1 construct: purchased Signal Chem T1065-3
T1 sequence (Q6TGC4 1-694): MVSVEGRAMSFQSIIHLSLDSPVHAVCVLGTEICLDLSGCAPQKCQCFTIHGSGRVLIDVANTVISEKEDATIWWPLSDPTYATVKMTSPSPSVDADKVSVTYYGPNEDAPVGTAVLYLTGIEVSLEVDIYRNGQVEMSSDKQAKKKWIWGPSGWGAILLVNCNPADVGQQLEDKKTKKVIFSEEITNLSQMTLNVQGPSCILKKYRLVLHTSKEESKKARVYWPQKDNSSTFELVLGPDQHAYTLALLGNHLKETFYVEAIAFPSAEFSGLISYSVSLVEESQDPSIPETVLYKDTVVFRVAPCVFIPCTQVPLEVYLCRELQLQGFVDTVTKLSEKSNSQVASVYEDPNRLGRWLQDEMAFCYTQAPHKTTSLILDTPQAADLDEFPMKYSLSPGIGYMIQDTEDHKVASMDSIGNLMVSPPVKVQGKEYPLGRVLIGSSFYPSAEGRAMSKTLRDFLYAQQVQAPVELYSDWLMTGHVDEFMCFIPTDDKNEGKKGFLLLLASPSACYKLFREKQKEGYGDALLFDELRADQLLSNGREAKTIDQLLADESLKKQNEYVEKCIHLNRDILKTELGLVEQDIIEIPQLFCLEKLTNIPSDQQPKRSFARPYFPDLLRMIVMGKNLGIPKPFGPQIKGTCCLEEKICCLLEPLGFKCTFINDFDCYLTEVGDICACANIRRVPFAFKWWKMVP
The series is described as follows: PAD6 selectivity biochemical assay measuring ammonia release. Conditions: 10 semi-log concentrations, highest concentration tested 30 µM.

Series [3] deals with T2, human recombinant PAD1 (Homo sapiens, UniProt Q9ULC6).
T2 construct: purchased Cayman Chemicals 10784
T2 sequence (Q9ULC6 1-663): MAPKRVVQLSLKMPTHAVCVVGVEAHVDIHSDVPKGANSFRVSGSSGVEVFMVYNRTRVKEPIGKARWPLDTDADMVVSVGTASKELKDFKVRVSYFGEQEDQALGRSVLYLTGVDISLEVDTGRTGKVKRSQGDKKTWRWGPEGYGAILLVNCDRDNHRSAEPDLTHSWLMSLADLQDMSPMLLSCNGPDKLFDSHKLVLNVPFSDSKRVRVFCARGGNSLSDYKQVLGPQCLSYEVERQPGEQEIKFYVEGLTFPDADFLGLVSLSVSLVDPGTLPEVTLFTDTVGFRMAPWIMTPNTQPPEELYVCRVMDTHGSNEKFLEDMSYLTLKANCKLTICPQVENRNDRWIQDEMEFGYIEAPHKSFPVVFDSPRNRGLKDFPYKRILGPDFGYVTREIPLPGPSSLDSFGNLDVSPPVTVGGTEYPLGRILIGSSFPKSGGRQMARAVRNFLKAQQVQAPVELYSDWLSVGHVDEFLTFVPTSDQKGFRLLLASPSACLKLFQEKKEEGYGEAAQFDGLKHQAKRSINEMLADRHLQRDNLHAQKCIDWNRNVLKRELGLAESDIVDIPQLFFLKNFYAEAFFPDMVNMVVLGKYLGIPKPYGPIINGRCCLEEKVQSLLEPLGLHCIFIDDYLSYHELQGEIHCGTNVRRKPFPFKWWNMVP
The series is described as follows: PAD1 selectivity biochemical assay measuring ammonia release. Particulars: 10 semi-log concentrations, highest concentration tested 30 µM.

Series [4] has as its system PBMCs. The series is described as follows: Cell Titer Glo viability assay, PBMC. The format is cell-based, human. Conditions: 24 h, up to 10 µM. The procedure: In a K2EDTA vacutainer, 50 mL blood from a healthy human donor was collected, diluted 1:1 with PBS, and gently layered on Histopaque-1077. The tube was centrifuged at 400 g for 30 min at room temperature in a swinging bucket rotor without brakes or acceleration. After centrifugation, the tubes were gently removed from the centrifuge to avoid disturbing the layers of RBC at the bottom, PBMC in the middle, and clear supernatant at the top. Plasma and platelet-rich upper layer was aspirated using a sterile pipette leaving the mononuclear cell layer (buffy coat) undisturbed at the interphase. This buffy coat layer was transferred with care to a fresh conical 50 mL tube, resuspended in PBS buffer and the tube was centrifuged for 10 min at 300 g at room temperature, and the resultant cell pellet was resuspended in complete RPMI medium. After repeating this step twice, the resultant isolated cells were used for the experiments.
The CellTiter-Glo luminescent cell viability assay was performed on neutrophils/peripheral blood mononuclear cells according to the manufacturer’s instructions (Promega, catalog number: G7570)[35]. Breifly, 0.25 million cells of Neutrophils /PBMC were seeded in a black 96 well clear bottom plate. Compound was added at desired concentrations in 1% DMSO. […] Luminescence was recorded with Perkin Elmer envision 2103 multilabel reader.

On to `Cc1c(-c2cc3ccccc3n2Cc2ccc(F)cc2)nc2cc(C(=O)N3CCC[C@@H](N)C3)ccn12` [JBI-589, (R)-(3-aminopiperidin-1-yl)(2-(1-(4-fluorobenzyl)-1H-indol-2-yl)-3-methylimidazo[1,2-a]pyridin-7-yl)methanone], for which, in series [1], the viability of neutrophils entry was “minimal or no changes”. Moreover, in series [2], the “inhibitory activity against PAD6” value is reported as “did not have any inhibitory activity”. Also, the “inhibitory activity against PAD1” value in series [3] is given as “did not have any inhibitory activity”. Besides, the “viability of PBMCs” value in series [4] is on record as “minimal or no changes”.
